Data taken from EP4813464A2, “PEPTIDE FOR PREVENTING AND TREATING FIBROSIS” (priority 2021, dated 2022).

Key:
[1] = system: animal model in which lung disease was induced with bleomycin; assay: Bleomycin-induced lung disease model, lung histology; format: in vivo, C57BL/6J mice; conditions: day 22; peptides 30 mg/kg subcutaneously three times a week, nintedanib 100 mg/kg orally daily; peptides compared to NT group and nintedanib group; FIG. 8c
Method: C57BL/6J mice (male, 7 weeks old) were purchased from Charles River. Mice were anesthetized by intraperitoneal administration of a mixture of Imalgene (ketamine, 100 mg/kg)/Rompun (xylazine, 20 mg/kg), and a total of 50 µl of bleomycin sulfate (1.45 mg/kg, MBcell, CA, USA) was injected intratracheally once, and saline was injected intratracheally in the normal group (day 0). On day 7, mice were divided into groups, each consisting of eight. PBS (NT), SEQ ID NO: 1 (30 mg/kg), and SEQ ID NO: 2 (30 mg/kg) were administered subcutaneously three times a week, and nintedanib (Fluorochem Ref = 050741, 100 mg/kg) was administered orally daily. Each of the peptides of SEQ ID NO: 1 and SEQ ID NO: 2 was administered after dissolution in water for injection, and nintedanib was administered after mixing with water containing 0.5% hydroxyethylcellulose (Sigma; lot BCBV5033) and 0.01% Tween 80 (Sigma; lot BCBR6211V). While administering the drug for 21 days, body weight was measured every 2 days, and whether there were other clinical symptoms were checked.
After mice were sacrificed with isoflurane on day 22, lung tissue was excised therefrom and histological analysis was performed. […]
In order to quantify the fibrotic change, the area of the red (fibrotic portion) was quantified in the sample stained with Sirius Red.

[2] = format: in vivo, C57BL/6J mice; conditions: bleomycin mice, treatment from day 7, day 0 to day 22; peptides 30 mg/kg subcutaneously three times a week, nintedanib 100 mg/kg orally daily; FIG. 8b
Text: Based on results of measuring the change in body weight from day 0 to day 22, the body weight decreased until day 7 after administration of bleomycin, but increased after treatment with the peptide according to the present invention and nintedanib (FIG. 8b), and weight loss due to toxicity of the peptide according to the present invention and nintedanib was not observed.

## COC(=O)c1ccc2c(c1)NC(=O)/C2=C(\Nc1ccc(N(C)C(=O)CN2CCN(C)CC2)cc1)c1ccccc1 [nintedanib]
[1]
  fibrous deposition in the lungs (Sirius Red and hematoxylin/phloxine staining, microscopy): some therapeutic effect, but a lot of deposited fibrous tissue was still observed
[2]
  change in body weight: increased
